Activity calls are given as the source filed them. The calls are words filed in the database; no cut-off is given here.
Columns and labels:
[1] = Stability in mouse plasma assessed as half life at 1.56 mM by RP-HPLC analysis; type: ADME, cell-free
[2] = tested on: Mus musculus; test: Reno-protective activity in C57BL/6 mouse model of renal I/R injury assessed as improvement in pathologies in injured kidneys dosed intraperitoneally twice per day for 3 days from day of I/R injury to end of experiment by hematoxylin and eosin staining based assay; type: functional, organism-based; details: time 3.0 day
[3] = tested on: Mus musculus; test: Reno-protective activity in C57BL/6 mouse model of renal I/R injury assessed as reduction neutrophil infiltration dosed intraperitoneally twice per day for 3 days from day of I/R injury to end of experiment; type: functional, organism-based; details: time 3.0 day
[4] = Stability in mouse plasma assessed as intact peptide level at 1.56 mM incubated for 1 hr by RP-HPLC analysis; type: ADME, cell-free; details: read-out: Stabilty
[5] = molecular target: T1, Apelin receptor (Rattus norvegicus, UniProt Q9JHG3); test: Agonist activity at APJ receptor in rat NRK-52E cells assessed as effect on cAMP accumulation incubated for 1 hr by cAMP-Glo assay; type: functional, cell-based
T1 sequence (Q9JHG3 whole entry): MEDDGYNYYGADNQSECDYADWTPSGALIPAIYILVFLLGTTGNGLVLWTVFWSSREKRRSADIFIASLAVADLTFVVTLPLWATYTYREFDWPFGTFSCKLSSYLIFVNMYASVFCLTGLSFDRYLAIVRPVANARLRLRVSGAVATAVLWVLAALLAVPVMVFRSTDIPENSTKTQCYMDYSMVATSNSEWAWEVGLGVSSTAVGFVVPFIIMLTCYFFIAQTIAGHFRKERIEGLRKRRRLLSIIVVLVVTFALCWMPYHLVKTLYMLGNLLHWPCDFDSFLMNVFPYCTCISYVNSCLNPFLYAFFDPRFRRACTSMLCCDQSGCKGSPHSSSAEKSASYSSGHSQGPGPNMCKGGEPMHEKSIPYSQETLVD

[6] = tested on: Mus musculus; test: Reno-protective activity in C57BL/6 mouse model of renal I/R injury assessed as reduction in fibrosis by measuring collagen deposition dosed intraperitoneally twice per day for 3 days from day of I/R injury to end of experiment by Masson staining based assay; type: functional, organism-based; details: time 3.0 day
[7] = Stability in human plasma assessed as half life at 1.56 mM by RP-HPLC analysis; type: ADME, cell-free
[8] = tested on: Mus musculus; test: Reno-protective activity in C57BL/6 mouse model of renal I/R injury assessed as reduction lymphocyte infiltration dosed intraperitoneally twice per day for 3 days from day of I/R injury to end of experiment; type: functional, organism-based; details: time 3.0 day
[9] = tested on: Mus musculus; test: Reno-protective activity in C57BL/6 mouse model of renal I/R injury assessed as reduction in p-MLK levels dosed intraperitoneally twice per day for 3 days from day of I/R injury to end of experiment by Western blot analysis; type: functional, organism-based; details: time 3.0 day
[10] = tested on: Mus musculus; test: Reno-protective activity in C57BL/6 mouse model of renal I/R injury assessed as reduction in apoptosis by measuring increase in number of TUNEL+ cells dosed intraperitoneally twice per day for 3 days from day of I/R injury to end of experiment by TUNEL assay; type: functional, organism-based; details: time 3.0 day
[11] = tested on: Mus musculus; test: Reno-protective activity in C57BL/6 mouse model of renal I/R injury assessed as suppression of reduction in cleaved-caspase-8 levels dosed intraperitoneally twice per day for 3 days from day of I/R injury to end of experiment by Western blot analysis; type: functional, organism-based; details: time 3.0 day
[12] = Half life in mouse at 3 umol/kg, iv by analytical RP-HPLC analysis; type: ADME, organism-based; details: in vivo, dose 3 µmol/kg
[13] = tested on: Mus musculus; test: Reno-protective activity in C57BL/6 mouse model of renal I/R injury assessed as reduction in cleaved-caspase-3 levels dosed intraperitoneally twice per day for 3 days from day of I/R injury to end of experiment by Western blot analysis; type: functional, organism-based; details: time 3.0 day
[14] = tested on: NRK-52E; test: Cytoprotective activity in rat NRK-52E cells assessed as reduction in H/R-injury induced cell death at 300 pM incubated for 24 hrs; type: functional, cell-based
[15] = tested on: NRK-52E; test: Cytoprotective activity in rat NRK-52E cells assessed as reduction in cisplatin-induced cell death at 300 pM incubated for 24 hrs; type: functional, cell-based
[16] = tested on: Mus musculus; test: Reno-protective activity in C57BL/6 mouse model of renal I/R injury assessed as reduction N-gal mRNA levels dosed intraperitoneally twice per day for 3 days from day of I/R injury to end of experiment by qPCR analysis; type: functional, organism-based; details: time 3.0 day
[17] = tested on: Mus musculus; test: Reno-protective activity in C57BL/6 mouse model of renal I/R injury assessed as reduction in serum BUN level dosed intraperitoneally twice per day for 3 days from day of I/R injury to end of experiment; type: functional, organism-based; details: time 3.0 day
[18] = tested on: Mus musculus; test: Reno-protective activity in C57BL/6 mouse model of renal I/R injury assessed as reduction Kim1 mRNA levels dosed intraperitoneally twice per day for 3 days from day of I/R injury to end of experiment by qPCR analysis; type: functional, organism-based; details: time 3.0 day
[19] = tested on: Mus musculus; test: Reno-protective activity in C57BL/6 mouse model of renal I/R injury assessed as reduction Kim1 mRNA expression dosed intraperitoneally twice per day for 3 days starting from 6 to 24 hrs post I/R operation by qPCR analysis; type: functional, organism-based; details: time 3.0 day
[20] = tested on: Mus musculus; test: Reno-protective activity in C57BL/6 mouse model of renal I/R injury assessed as suppression of renal dysfunction dosed intraperitoneally twice per day for 3 days starting from 6 hrs post I/R operation by hematoxylin and eosin staining based assay; type: functional, organism-based; details: time 3.0 day
[21] = tested on: Mus musculus; test: Reno-protective activity in C57BL/6 mouse model of renal I/R injury assessed as reduction Il6 mRNA levels dosed intraperitoneally twice per day for 3 days from day of I/R injury to end of experiment by qPCR analysis; type: functional, organism-based; details: time 3.0 day
[22] = tested on: Mus musculus; test: Reno-protective activity in C57BL/6 mouse model of renal I/R injury assessed as reduction in tubular epithelial cell apoptosis dosed intraperitoneally twice per day for 3 days starting from 6 to 24 hrs post I/R operation by TUNEL assay; type: functional, organism-based; details: time 3.0 day
[23] = tested on: Mus musculus; test: Reno-protective activity in C57BL/6 mouse model of renal I/R injury assessed as reduction in serum creatinine level dosed intraperitoneally twice per day for 3 days from day of I/R injury to end of experiment; type: functional, organism-based; details: time 3.0 day
[24] = tested on: Mus musculus; test: Reno-protective activity in C57BL/6 mouse model of renal I/R injury assessed as reduction in fibrosis by measuring collagen deposition dosed intraperitoneally twice per day for 3 days starting from 6 to 24 hrs post I/R operation by Masson staining based assay; type: functional, organism-based; details: time 3.0 day
[25] = tested on: Mus musculus; test: Reno-protective activity in C57BL/6 mouse model of renal I/R injury assessed as reduction lymphocyte infiltration dosed intraperitoneally twice per day for 3 days starting from 6 to 24 hrs post I/R operation; type: functional, organism-based; details: time 3.0 day
[26] = tested on: Mus musculus; test: Reno-protective activity in C57BL/6 mouse model of renal I/R injury assessed as suppression of renal tubular damage dosed intraperitoneally twice per day for 3 days starting from 6 to 24 hrs post I/R operation by hematoxylin and eosin staining based assay; type: functional, organism-based; details: time 3.0 day
[27] = tested on: Mus musculus; test: Reno-protective activity in C57BL/6 mouse model of renal I/R injury assessed as reduction TNF-alpha mRNA levels dosed intraperitoneally twice per day for 3 days from day of I/R injury to end of experiment by qPCR analysis; type: functional, organism-based; details: time 3.0 day
[28] = tested on: Mus musculus; test: Reno-protective activity in C57BL/6 mouse model of renal I/R injury assessed as reduction neutrophil infiltration dosed intraperitoneally twice per day for 3 days starting from 6 to 24 hrs post I/R operation; type: functional, organism-based; details: time 3.0 day
[29] = tested on: Mus musculus; test: Reno-protective activity in C57BL/6 mouse model of renal I/R injury assessed as reduction in tubular epithelial cell necroptosis dosed intraperitoneally twice per day for 3 days starting from 6 to 24 hrs post I/R operation by TUNEL assay; type: functional, organism-based; details: time 3.0 day

half-life at 1560 µM [1]	remaining at 1 h, 1560 µM [4]	EC50 [5]	half-life at 1560 µM [7]	half-life [12]	SMILES	Activity [2]	Activity [3]	Activity [6]	Activity [8]	Activity [9]	Activity [10]	Activity [11]	Activity [13]	Activity [14]	Activity [15]	Activity [16]	Activity [17]	further results
305 min	75.9%	9.48 nM	> 1440 min	–	CCCCCCCCCCCCCCCC(=O)N[C@@H](CCC(=O)NCCCC[C@H](NC(=O)CCC(=O)N[C@@H](CS)C(=O)N[C@@H](CCSC)C(=O)N1CCC[C@H]1C(=O)N[C@@H](CC(C)C)C(=O)N[C@@H](Cc1c[nH]cn1)C(=O)N[C@@H](CO)C(=O)N[C@@H](CCCNC(=N)N)C(=O)N[C@H](C(=O)N1CCC[C@H]1C(=O)N[C@@H](Cc1ccccc1)C(=O)N1CCC[C@H]1C(N)=O)C(C)C)C(=O)N[C@@H](CS)C(=O)N[C@@H](CCSC)C(=O)N1CCC[C@H]1C(=O)N[C@@H](CC(C)C)C(=O)N[C@@H](Cc1c[nH]cn1)C(=O)N[C@@H](CO)C(=O)N[C@@H](CCCNC(=N)N)C(=O)N[C@H](C(=O)N1CCC[C@H]1C(=O)N[C@@H](Cc1ccccc1)C(=O)N1CCC[C@H]1C(N)=O)C(C)C)C(=O)O	inactive	inactive	inactive	inactive	–	–	–	–	–	–	–	–	–
22.8 min	19%	–	23.4 min	21 min	CSCC[C@H](NC(=O)[C@@H](N)CS)C(=O)N1CCC[C@H]1C(=O)N[C@@H](CC(C)C)C(=O)N[C@@H](Cc1c[nH]cn1)C(=O)N[C@@H](CO)C(=O)N[C@@H](CCCNC(=N)N)C(=O)N[C@H](C(=O)N1CCC[C@H]1C(=O)N[C@@H](Cc1ccccc1)C(=O)N1CCC[C@H]1C(N)=O)C(C)C	Active	Active	Active	Active	Active	Active	Active	Active	Active	Active	–	–	–
47.4 min	38.7%	7.84 nM	106 min	–	CSCC[C@H](NC(=O)[C@H](CS)NC(=O)CC[C@H](NC(=O)CCOCCOCCOCCOCCOCCOCCN)C(=O)O)C(=O)N1CCC[C@H]1C(=O)N[C@@H](CC(C)C)C(=O)N[C@@H](Cc1c[nH]cn1)C(=O)N[C@@H](CO)C(=O)N[C@@H](CCCNC(=N)N)C(=O)N[C@H](C(=O)N1CCC[C@H]1C(=O)N[C@@H](Cc1ccccc1)C(=O)N1CCC[C@H]1C(N)=O)C(C)C	Active	Active	Active	Active	Active	Active	Active	Active	Active	Active	Active	Active	–
30 min	25.8%	7.98 nM	37.8 min	–	CCCCCCCCCCCCCCCC(=O)N[C@@H](CCC(=O)NCCCC[C@H](N)C(=O)N[C@@H](CS)C(=O)N[C@@H](CCSC)C(=O)N1CCC[C@H]1C(=O)N[C@@H](CC(C)C)C(=O)N[C@@H](Cc1c[nH]cn1)C(=O)N[C@@H](CO)C(=O)N[C@@H](CCCNC(=N)N)C(=O)N[C@H](C(=O)N1CCC[C@H]1C(=O)N[C@@H](Cc1ccccc1)C(=O)N1CCC[C@H]1C(N)=O)C(C)C)C(=O)O	Active	Active	Active	Active	Active	Active	Active	Active	–	–	–	–	–
87 min	63.6%	–	118 min	1350 min	CCCCCCCCCCCCCCCC(=O)N[C@@H](CCC(=O)N[C@@H](CS)C(=O)N[C@@H](CCSC)C(=O)N1CCC[C@H]1C(=O)N[C@@H](CC(C)C)C(=O)N[C@@H](Cc1c[nH]cn1)C(=O)N[C@@H](CO)C(=O)N[C@@H](CCCNC(=N)N)C(=O)N[C@H](C(=O)N1CCC[C@H]1C(=O)N[C@@H](Cc1ccccc1)C(=O)N1CCC[C@H]1C(N)=O)C(C)C)C(=O)O	Active	Active	Active	Active	Active	Active	Active	Active	Active	Active	Active	Active	Activity [18]: Active; Activity [19]: Active; Activity [20]: Active; Activity [21]: Active; Activity [22]: Active; Activity [23]: Active; Activity [24]: Active; Activity [25]: Active; Activity [26]: Active; Activity [27]: Active; Activity [28]: Active; Activity [29]: Active

SMILES	half-life at 1560 µM [1]	remaining at 1 h, 1560 µM [4]	EC50 [5]	half-life at 1560 µM [7]	half-life [12]	Activity [2]	Activity [3]	Activity [6]	Activity [8]	Activity [9]	Activity [10]	Activity [11]	Activity [13]	Activity [14]	Activity [15]	Activity [16]	Activity [17]	further results
CSCC[C@H](NC(=O)[C@H](CS)NC(=O)[C@H](CCCNC(=N)N)NC(=O)[C@H](CCCNC(=N)N)NC(=O)[C@@H]1CCC(=O)N1)C(=O)N1CCC[C@H]1C(=O)N[C@@H](CC(C)C)C(=O)N[C@@H](Cc1c[nH]cn1)C(=O)N[C@@H](CO)C(=O)N[C@@H](CCCNC(=N)N)C(=O)N[C@H](C(=O)N1CCC[C@H]1C(=O)N[C@@H](Cc1ccccc1)C(=O)N1CCC[C@H]1C(N)=O)C(C)C	17.4 min	–	–	–	–	–	–	–	–	–	–	–	–	–	–	–	–	–

From ChEMBL document CHEMBL4706634, “PEGylated and Acylated Elabela Analogues Show Enhanced Receptor Binding, Prolonged Stability, and Remedy of Acute Kidney Injury” (J Med Chem, 2020)
